From ChEMBL document CHEMBL4000197, “Design, synthesis, biological evaluation, and molecular docking of chalcone derivatives as anti-inflammatory agents” (Bioorg Med Chem Lett, 2017)

Test system: Mus musculus
Experiment: Anti-inflammatory activity in para-xylene-induced Kunming mouse ear-swelling model assessed as inhibition of ear swelling at 5 mg/kg, ig measured after 1 hr relative to control
Type: functional
Details: po

Structure (SMILES) | inhibition in vivo at 5 mg/kg [%]
Cc1ccc(-c2cc(C(F)(F)F)nn2-c2ccc(S(N)(=O)=O)cc2)cc1 [CELECOXIB] | 77

Test system: Mus musculus
Experiment: Anti-inflammatory activity in para-xylene-induced Kunming mouse ear-swelling model assessed as inhibition of ear swelling at 100 mg/kg, ig measured after 1 hr relative to control
Type: functional
Details: po

Structure (SMILES) | inhibition in vivo at 100 mg/kg [%]
CC(=O)Oc1ccccc1C(=O)O [ASPIRIN] | 64.9

Test system: RAW264.7
Experiment: Anti-inflammatory activity in mouse RAW264.7 cells assessed as inhibition of LPS-induced IL-6 production pretreated for 2 hrs followed by LPS challenge measured after 22 hrs by ELISA
Type: functional, cell-based
Details: not given

Structure (SMILES) | inhibition
COc1ccc(/C=C/C(=O)c2ccc(N3CCN(S(=O)(=O)c4ccc(Br)cc4)CC3)cc2)cc1OC | Dose-dependent effect

Test system: RAW264.7
Experiment: Anti-inflammatory activity in mouse RAW264.7 cells assessed as inhibition of LPS-induced TNF-alpha production pretreated for 2 hrs followed by LPS challenge measured after 22 hrs by ELISA
Type: functional, cell-based
Details: not given

Structure (SMILES) | inhibition
COc1ccc(/C=C/C(=O)c2ccc(N3CCN(S(=O)(=O)c4ccc(Br)cc4)CC3)cc2)cc1OC | Dose-dependent effect

Test system: RAW264.7
Experiment: Cytotoxicity against mouse RAW264.7 cells at < 50 uM by MTT assay
Type: cell-based
Details: not given

Structure (SMILES) | Activity
COc1ccc(/C=C/C(=O)c2ccc(N3CCN(S(=O)(=O)c4ccc(Br)cc4)CC3)cc2)cc1OC | Non-Toxic

Test system: Mus musculus
Experiment: Anti-inflammatory activity in para-xylene-induced Kunming mouse ear-swelling model assessed as inhibition of ear swelling at 40 mg/kg, ig measured after 1 hr relative to control
Type: functional
Details: po

Structure (SMILES) | inhibition in vivo at 40 mg/kg [%]
COc1ccc(S(=O)(=O)N2CCN(c3ccc(C(=O)/C=C/c4ccccc4)cc3)CC2)cc1OC | 55.5
O=C(/C=C/c1ccc(Cl)cc1)c1ccc(N2CCN(S(=O)(=O)c3ccc(Cl)cc3)CC2)cc1 | 56.6
Cc1ccc(N2CCN(c3ccc(C(=O)/C=C/c4ccccc4)cc3)CC2)c(C)c1 | 15
COc1ccc(N2CCN(c3ccc(C(=O)/C=C/c4ccc(Cl)cc4)cc3)CC2)cc1 | 55.1
O=C(/C=C/c1ccccc1)c1ccc(N2CCN(S(=O)(=O)c3ccc(Br)cc3)CC2)cc1 | 47.4
O=C(/C=C/c1ccccc1)c1ccc(N2CCN(c3ccccc3)CC2)cc1 | 3.71
Cc1cc(C)c(S(=O)(=O)N2CCN(c3ccc(C(=O)/C=C/c4ccccc4)cc3)CC2)c(C)c1 | 55.5
O=C(/C=C/c1ccc(Cl)cc1)c1ccc(N2CCN(S(=O)(=O)c3ccc(C(F)(F)F)cc3)CC2)cc1 | 59.6
O=C(/C=C/c1ccccc1)c1ccc(N2CCN(S(=O)(=O)c3ccc(Cl)cc3)CC2)cc1 | 46.8
COc1ccc(S(=O)(=O)N2CCN(c3ccc(C(=O)/C=C/c4ccc(OC)c(OC)c4)cc3)CC2)cc1 | 64
Cc1ccc(N2CCN(c3ccc(C(=O)/C=C/c4ccc(Cl)cc4)cc3)CC2)c(C)c1 | 25.7
O=C(/C=C/c1ccccc1)c1ccc(N2CCN(c3ccccc3F)CC2)cc1 | 0.57
O=C(/C=C/c1ccccc1)c1ccc(N2CCN(c3cccc(C(F)(F)F)c3)CC2)cc1 | 25
COc1ccc(/C=C/C(=O)c2ccc(N3CCN(c4ccc(C)cc4C)CC3)cc2)cc1OC | 48.5
O=C(/C=C/c1ccccc1)c1ccc(N2CCN(c3ccccc3Cl)CC2)cc1 | 4.71
O=C(/C=C/c1ccc(Cl)cc1)c1ccc(N2CCN(c3cccc(Cl)c3)CC2)cc1 | 5.85
COc1ccc(/C=C/C(=O)c2ccc(N3CCN(c4ccc(Cl)c(Cl)c4)CC3)cc2)cc1OC | 63.5
O=C(/C=C/c1ccccc1)c1ccccc1 [CHALCONE] | 21.7

Structure (SMILES) | inhibition in vivo at 40 mg/kg [%]
O=C(/C=C/c1ccccc1)c1ccc(N2CCN(S(=O)(=O)c3ccc4ccccc4c3)CC2)cc1 | 35
O=C(/C=C/c1ccccc1)c1ccc(N2CCN(c3ccc([N+](=O)[O-])cc3)CC2)cc1 | 55.4
O=C(/C=C/c1ccccc1)c1ccc(N2CCN(c3cccc(Cl)c3)CC2)cc1 | 14.1
Cc1ccc(N2CCN(c3ccc(C(=O)/C=C/c4ccccc4)cc3)CC2)cc1 | 2.85
Cc1ccc(S(=O)(=O)N2CCN(c3ccc(C(=O)/C=C/c4ccccc4)cc3)CC2)cc1 | 30.8
O=C(/C=C/c1ccccc1)c1ccc(N2CCN(S(=O)(=O)c3ccccc3)CC2)cc1 | 30
CC(C)c1cc(C(C)C)c(S(=O)(=O)N2CCN(c3ccc(C(=O)/C=C/c4ccccc4)cc3)CC2)c(C(C)C)c1 | 60.1
O=C(/C=C/c1ccccc1)c1ccc(N2CCN(c3ccc(Cl)c(Cl)c3)CC2)cc1 | 13.4
COc1ccccc1N1CCN(c2ccc(C(=O)/C=C/c3ccc(Cl)cc3)cc2)CC1 | 6.13
O=C(/C=C/c1ccccc1)c1ccc(N2CCN(Cc3ccccc3)CC2)cc1 | 17.7
COc1cccc(N2CCN(c3ccc(C(=O)/C=C/c4ccc(Cl)cc4)cc3)CC2)c1 | 2.28
COc1cccc(N2CCN(c3ccc(C(=O)/C=C/c4ccccc4)cc3)CC2)c1 | 16
COc1ccc(/C=C/C(=O)c2ccc(N3CCN(S(=O)(=O)c4ccc(Br)cc4)CC3)cc2)cc1OC | 75.5
O=C(/C=C/c1ccccc1)c1ccc(N2CCN(S(=O)(=O)c3ccc(OC(F)(F)F)cc3)CC2)cc1 | 47.4
O=C(/C=C/c1ccccc1)c1ccc(N2CCN(c3cccc(Cl)c3Cl)CC2)cc1 | 30.7
CCCCc1ccc(S(=O)(=O)N2CCN(c3ccc(C(=O)/C=C/c4ccccc4)cc3)CC2)cc1 | 24
COc1ccc(S(=O)(=O)N2CCN(c3ccc(C(=O)/C=C/c4ccccc4)cc3)CC2)cc1 | 45.2
O=C(/C=C/c1ccccc1)c1ccc(N2CCN(S(=O)(=O)c3ccc(C(F)(F)F)cc3)CC2)cc1 | 47.9
